The supplement of paper PMC11208160

Test: recombinant UMI read abundance after kanamycin selection (control-corrected) (log10(CPM+1)); higher = more efficient recombination; extreme values may be limits of the assay; sequences stand for … in AGTGCAGAGAAAATCGGCCAGTTTTCTCTGCCTGCAGTCCGCATGCCGTGGGACCCCTTGGGTTCTAACCTGTTGCCTAGATTTATGCAGCGGACTGCCTTTCTCCCAAAGTGATAAACCGG…AGGTTGGTTTCACT; site = the 11-nt donor
Protocol: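 Pooled E. coli donor-specificity screen for the IS621 bridge recombinase. Each library member carries a reprogrammed 11-nt donor and a full-length LE bridge RNA expressed in cis from the natural promoter, with a paired donor-binding loop (8-nt LDG + 4-nt RDG) and a target-binding loop fixed to T5. It is co-electroporated with a T5 target plasmid; recombinase is induced with 0.07 mM IPTG and recombinants are selected on kanamycin. UMIs are counted as CPM, averaged over two biological replicates and corrected by the unselected control. Molecule = full bridge RNA written as DNA, built from the T5 scaffold: LDG = donor specificity nt 1-8, RDG = reverse complement of nt 8-11.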
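Also: IS621 bridge recombinase in Escherichia coli cells against a fixed T5 target plasmid.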

| Sequence | recombinant UMI read abundance (log10) |
| --- | --- |
| ACACGAGCATGGACCGGTTTTCCCGGTAATCCGTATTTGTC (site ACACGAACTGA) | 2.63 |
| ACACGAGCATGGACCGGTTTTCCCGGTAATCCGTATTTGTC (site ACACGACCTGA) | 0 |
| ACACGAGCATGGACCGGTTTTCCCGGTAATCCGTATTTGTC (site ACACGAGCTGA) | 2.61 |
| ACACGAGCATGGACCGGTTTTCCCGGTAATCCGTATTTGTC (site ACACGATCTGA) | 2.27 |
| ACACTAGCATGGACCGGTTTTCCCGGTAATCCGTATTTGCA (site ACACTAGCTTG) | 1.05 |
| ACACTAGCATGGACCGGTTTTCCCGGTAATCCGTATTTGCA (site ACAGTATCTTG) | 0.00925 |
| ACACTTACATGGACCGGTTTTCCCGGTAATCCGTATTTGGG (site ACACTTACTCC) | 0.464 |
| ACACTTCCATGGACCGGTTTTCCCGGTAATCCGTATTTGAC (site ACACATCCTGT) | 1.66 |
| ACACTTCCATGGACCGGTTTTCCCGGTAATCCGTATTTGAC (site ACACCTCCTGT) | 1.29 |
| ACACTTCCATGGACCGGTTTTCCCGGTAATCCGTATTTGAC (site ACACGTCCTGT) | 1.08 |
| ACACTTCCATGGACCGGTTTTCCCGGTAATCCGTATTTGAC (site ACACTTCCTGT) | 0.338 |
| ACAGAATCATGGACCGGTTTTCCCGGTAATCCGTATTTGCT (site ACAGAATCTAG) | 2.19 |
| ACAGAATCATGGACCGGTTTTCCCGGTAATCCGTATTTGCT (site ACAGTATCTTG) | 0.97 |
| ACAGAATCATGGACCGGTTTTCCCGGTAATCCGTATTTGGA (site ACAGAATCTTC) | 2.48 |
| ACAGAATCATGGACCGGTTTTCCCGGTAATCCGTATTTGGA (site ACAGTATCTTG) | 0 |
| ACAGAGACATGGACCGGTTTTCCCGGTAATCCGTATTTGCG (site ACAGAGACTCG) | 2.84 |
| ACAGAGACATGGACCGGTTTTCCCGGTAATCCGTATTTGCG (site CCAGAGACTCG) | 2.19 |
| ACAGAGACATGGACCGGTTTTCCCGGTAATCCGTATTTGCG (site GCAGAGACTCG) | 1.18 |
| ACAGAGACATGGACCGGTTTTCCCGGTAATCCGTATTTGCG (site TCAGAGACTCG) | 2.18 |
| ACAGATACATGGACCGGTTTTCCCGGTAATCCGTATTTGCC (site ACAGATACTGG) | 1.19 |
| ACAGCATCATGGACCGGTTTTCCCGGTAATCCGTATTTGTA (site ACAGCATCTTA) | 2.85 |
| ACAGCATCATGGACCGGTTTTCCCGGTAATCCGTATTTGTA (site ACAGTATCTTG) | 0 |
| ACAGCGCCATGGACCGGTTTTCCCGGTAATCCGTATTTGTT (site ACAGCGCCTAA) | 0.431 |
| ACAGGGCCATGGACCGGTTTTCCCGGTAATCCGTATTTGCT (site ACAGGGCCTAG) | 1.1 |

| Sequence | recombinant UMI read abundance (log10) |
| --- | --- |
| ACAGGTCCATGGACCGGTTTTCCCGGTAATCCGTATTTGGC (site ACAGGTCCTGC) | 1.02 |
| ACAGTAGCATGGACCGGTTTTCCCGGTAATCCGTATTTGCA (site ACAGTAACTTG) | 2.58 |
| ACAGTAGCATGGACCGGTTTTCCCGGTAATCCGTATTTGCA (site ACAGTACCTTG) | 0 |
| ACAGTAGCATGGACCGGTTTTCCCGGTAATCCGTATTTGCA (site ACAGTAGCTTG) | 2.85 |
| ACAGTAGCATGGACCGGTTTTCCCGGTAATCCGTATTTGCA (site ACAGTATCTTG) | 2 |
| ACAGTATCATGGACCGGTTTTCCCGGTAATCCGTATTTGCT (site ACAGTATCTAG) | 2.8 |
| ACAGTATCATGGACCGGTTTTCCCGGTAATCCGTATTTGCT (site ACAGTATCTCG) | 1.11 |
| ACAGTATCATGGACCGGTTTTCCCGGTAATCCGTATTTGCT (site ACAGTATCTGG) | 2.29 |
| ACAGTATCATGGACCGGTTTTCCCGGTAATCCGTATTTGCT (site ACAGTATCTTG) | 2.22 |
| ACAGTCTCATGGACCGGTTTTCCCGGTAATCCGTATTTGGA (site ACAGTATCTTG) | 0 |
| ACAGTCTCATGGACCGGTTTTCCCGGTAATCCGTATTTGGA (site ACAGTCTCTTC) | 2.89 |
| ACAGTGGCATGGACCGGTTTTCCCGGTAATCCGTATTTGCG (site ACAGTGGCTCG) | 1.93 |
| ACAGTGTCATGGACCGGTTTTCCCGGTAATCCGTATTTGCC (site ACAGTATCTTG) | 2.05 |
| ACAGTGTCATGGACCGGTTTTCCCGGTAATCCGTATTTGCC (site ACAGTGTCTGG) | 2.88 |
| ACAGTTGCATGGACCGGTTTTCCCGGTAATCCGTATTTGCA (site ACAGTATCTTG) | 0 |
| ACAGTTGCATGGACCGGTTTTCCCGGTAATCCGTATTTGCA (site ACAGTTGCTTG) | 1.81 |
| ACAGTTTCATGGACCGGTTTTCCCGGTAATCCGTATTTGCA (site ACAGTATCTTG) | 2.55 |
| ACAGTTTCATGGACCGGTTTTCCCGGTAATCCGTATTTGCA (site ACAGTCTCTTG) | 2.43 |
| ACAGTTTCATGGACCGGTTTTCCCGGTAATCCGTATTTGCA (site ACAGTGTCTTG) | 1.52 |
| ACAGTTTCATGGACCGGTTTTCCCGGTAATCCGTATTTGCA (site ACAGTTTCTTG) | 2.24 |
| ACATACGCATGGACCGGTTTTCCCGGTAATCCGTATTTGGC (site ACATACGCTGC) | 2.78 |
| ACATCGACATGGACCGGTTTTCCCGGTAATCCGTATTTGTG (site ACATCAACTCA) | 0.397 |
| ACATCGACATGGACCGGTTTTCCCGGTAATCCGTATTTGTG (site ACATCCACTCA) | 0.0171 |
| ACATCGACATGGACCGGTTTTCCCGGTAATCCGTATTTGTG (site ACATCGACTCA) | 0.245 |

| Sequence | recombinant UMI read abundance (log10) |
| --- | --- |
| ACATCGACATGGACCGGTTTTCCCGGTAATCCGTATTTGTG (site ACATCTACTCA) | 0.00913 |
| ACATCTACATGGACCGGTTTTCCCGGTAATCCGTATTTGAG (site ACATCTACTCA) | 0.0306 |
| ACATCTACATGGACCGGTTTTCCCGGTAATCCGTATTTGAG (site ACATCTACTCC) | 0.184 |
| ACATCTACATGGACCGGTTTTCCCGGTAATCCGTATTTGAG (site ACATCTACTCG) | 0.0217 |
| ACATCTACATGGACCGGTTTTCCCGGTAATCCGTATTTGAG (site ACATCTACTCT) | 1.67 |
| ACATCTACATGGACCGGTTTTCCCGGTAATCCGTATTTGTA (site ACATCTACTAA) | 0.0109 |
| ACATCTACATGGACCGGTTTTCCCGGTAATCCGTATTTGTA (site ACATCTACTCA) | 0.0123 |
| ACATCTACATGGACCGGTTTTCCCGGTAATCCGTATTTGTA (site ACATCTACTGA) | 0 |
| ACATCTACATGGACCGGTTTTCCCGGTAATCCGTATTTGTA (site ACATCTACTTA) | 0.989 |
| ACATCTCCATGGACCGGTTTTCCCGGTAATCCGTATTTGTG (site ACATCTACTCA) | 0.0166 |
| ACATCTCCATGGACCGGTTTTCCCGGTAATCCGTATTTGTG (site ACATCTCCTCA) | 0.00967 |
| ACATCTCCATGGACCGGTTTTCCCGGTAATCCGTATTTGTG (site ACATCTGCTCA) | 0.0416 |
| ACATCTCCATGGACCGGTTTTCCCGGTAATCCGTATTTGTG (site ACATCTTCTCA) | 0.00664 |
| ACATCTTCATGGACCGGTTTTCCCGGTAATCCGTATTTGTG (site ACATCTACTCA) | 0.0158 |
| ACATCTTCATGGACCGGTTTTCCCGGTAATCCGTATTTGTG (site ACATCTCCTCA) | 0.0151 |
| ACATCTTCATGGACCGGTTTTCCCGGTAATCCGTATTTGTG (site ACATCTGCTCA) | 0 |
| ACATCTTCATGGACCGGTTTTCCCGGTAATCCGTATTTGTG (site ACATCTTCTCA) | 0.969 |
| ACATGAACATGGACCGGTTTTCCCGGTAATCCGTATTTGAC (site ACATGAACTGT) | 2.71 |
| ACATGATCATGGACCGGTTTTCCCGGTAATCCGTATTTGCA (site ACAGTATCTTG) | 1.14 |
| ACATGATCATGGACCGGTTTTCCCGGTAATCCGTATTTGCA (site ACATGATCTTG) | 2.74 |
| ACATGCGCATGGACCGGTTTTCCCGGTAATCCGTATTTGGT (site ACATGCGCTAC) | 1.02 |
| ACATTACCATGGACCGGTTTTCCCGGTAATCCGTATTTGGA (site ACATTACCTTC) | 0 |
| ACATTATCATGGACCGGTTTTCCCGGTAATCCGTATTTGAA (site ACAGTATCTTG) | 0 |
| ACATTATCATGGACCGGTTTTCCCGGTAATCCGTATTTGAA (site ACATTATCTTT) | 2.38 |
